Assay results from patent US20250129096A1, “ANNULATED 2-AMINO-3-CYANO THIOPHENES AND DERIVATIVES FOR THE TREATMENT OF CANCER” (Boehringer Ingelheim Int'l GmbH Corp., priority 2021, published 2025).
Converted amounts (≈) assume the structure as drawn. Like-named read-outs stand apart in the source and are kept apart here.

Legend:
KRAS G12D Ba/F3 cells = KRAS G12D Ba/F3 cells (Homo sapiens, UniProt P01116, G12D, cells depend on it); experiment: Ba/F3 proliferation assay, KRAS G12D; type: cell-based; conditions: 72 h, AlamarBlue; read-out: KRAS G12D Ba/F3 IC50
Procedure: (§1) To generate KRASG12-dependent Ba/F3 models, Ba/F3 cells are transduced with retroviruses containing vectors that harbor KRASG12 isoforms. Platinum-E cells (Cell Biolabs) are used for retrovirus packaging. Retrovirus is added to Ba/F3 cells. To ensure infection, 4 μg/mL polybrene is added and cells are spinfected. […] Cells with an infection efficiency of 10% to 20% are further cultivated and puromycin selection with 1 μg/mL is initiated. As a control, parental Ba/F3 cells are used to show selection status. Selection is considered successful when parental Ba/F3 cells cultures died. To evaluate the transforming potential of KRASG12 mutations, the growth medium is no longer supplemented with IL-3. Ba/F3 cells harboring the empty vector are used as a control. Approximately ten days before conducting the experiments, puromycin is left out. […] All treatments are performed in technical duplicates. […] AlamarBlue™(ThermoFisher), a viability stain, is added and fluorescence measured in the PerkinElmer Envision HTS Multilabel Reader. The raw data are imported into and analyzed with the Boehringer Ingelheim proprietary software MegaLab (curve fitting based on the program PRISM, GraphPad Inc.).

KRAS (G12C)::SOS1 = molecular target: T1, KRAS (G12C)::SOS1 (Homo sapiens, UniProt P01116, C118S/C51S/C80L/G12C); experiment: KRAS::SOS1 AlphaScreen binding assay, KRAS G12C
T1 construct: KRAS (G12C) 1-169, N-terminal 6His-tag for purification, cleaved off; 6His-tag (N, cleaved yes)
Procedure: (§2) Low IC50 values in this assay setting are indicative of strong inhibition of protein-protein interaction between SOS1 and KRAS:
(§3) These assays measure the inhibitory effect of compounds on KRAS mutant protein-protein interactions using the Alpha Screen technology by Perkin Elmer.
(§4) For the chosen highest assay concentration of 100 μM, 150 nL of compound solution are transferred from a 10 mM DMSO compound stock solution. A series of eleven fivefold dilutions per compound are transferred to the assay plate, compound dilutions are tested in duplicates. DMSO are added as backfill to a total volume of 150 nL.
(§5) The assays run on a fully automated robotic system in a darkened room below 100 Lux. To 150 nl of compound dilution 10 μl of a mix including KRAS mutant protein, SOS1 (final assay concentrations see above) and GDP nucleotide (Sigma G7127; final assay concentration 10 μM) in assay buffer (1×PBS, 0.1% BSA, 0.05% Tween 20) are added into columns 1-24. After 30 minutes incubation time 5 μl of Alpha Screen bead mix in assay buffer are added into columns 1-23.
(§6) Plates are kept at room temperature in a darkened incubator. After an additional 60 minutes incubation time the signal is measured in a PerkinElmer Envision HTS Multilabel Reader using the AlphaScreen specs from PerkinElmer.
(§7) IC50 values are calculated and analyzed with Boehringer Ingelheim's MEGALAB IC50 application using a 4 parametric logistic model.

KRAS G12C Ba/F3 cells = KRAS G12C Ba/F3 cells (Homo sapiens, UniProt P01116, G12C, cells depend on it); experiment: Ba/F3 proliferation assay, KRAS G12C; type: cell-based; conditions: 72 h, AlamarBlue; read-out: KRAS G12C Ba/F3 IC50
Procedure: as §1

[1] = Metabolic (microsomal) stability assay, HLM; type: in vitro ADME; conditions: human liver microsomes, 1 μM test compound, predicted clearance as percent of liver blood flow
Procedure: The metabolic degradation of the test compound is assayed at 37° C. with pooled liver microsomes (mouse (MLM), rat (RLM) or human (HLM)). The final incubation volume of 48 μL per time point contains TRIS buffer (pH 7.5; 0.1 M), magnesium chloride (6.5 mM), microsomal protein (0.5 mg/mL for mouse/rat, 1 mg/mL for human specimens) and the test compound at a final concentration of 1 μM. Following a short preincubation period at 37° C., the reactions are initiated by addition of 12 μL beta-nicotinamide adenine dinucleotide phosphate, reduced form (NADPH, 10 mM) and terminated by transferring an aliquot into solvent after different time points (0, 5, 15, 30, 60 min). Additionally, the NADPH-independent degradation is monitored in incubations without NADPH, terminated at the last time point by addition of acetonitrile. The quenched incubations are pelleted by centrifugation (4,000 rpm, 15 min). An aliquot of the supernatant is assayed by LC-MS/MS to quantify the concentration of parent compound in the individual samples.
In vitro intrinsic clearance (CLint, in vitro) is calculated from the time course of the disappearance of the test drug during the microsomal incubation. Each plot is fitted to the first-order elimination rate constant as C(t)=C0*exp(−ke*t), where C(t) and C0 are the concentration of unchanged test drug at incubation time t and that at preincubation and ke is the disappearance rate constant of the unchanged drug. Subsequently, CLint, in vitro (μL min^−1·amount protein) values are converted to predicted CLint, in vivo (mL min^−1 kg^−1) from incubation parameters according to the equation CLint, in vivo=CLint, in vitro×(incubation volume (ml)/amount protein (mg))×(amount protein (mg)/g liver tissue)×(liver weight/body wt.). For better across species comparison the predicted clearance is expressed as percent of the liver blood flow [% QH] (mL min^−1 kg^−1) in the individual species. In general, high stability (corresponding to low % QH) of the compounds across species is desired.

KRAS (G12D)::SOS1 = molecular target: T2, KRAS (G12D)::SOS1 (Homo sapiens, UniProt P01116, G12D); experiment: KRAS::SOS1 AlphaScreen binding assay, KRAS G12D
T2 construct: KRAS (G12D) 1-169, N-terminal 6His-tag, C-terminal avi-tag; 6His-tag (N); purchased Xtal BioStructures, Inc. (KRAS G12D); Viva Biotech Ltd (SOS1)
Procedure: as §2, §3, §4, §5, §6, §7

[2] = Solubility measurement (DMSO solution precipitation method); type: physicochemical; conditions: aqueous buffer, kinetic from dmso stock, ambient temperature
Procedure: The DMSO solution is diluted with an aqueous medium (McIlvaine buffer with pH=4.5 or 6.8) to a final concentration of 250 μM. After 24 h of shaking at ambient temperature a potentially formed precipitate is removed by filtration. The concentration of the test compound in the filtrate is determined by LC-UV methods by calibrating the signal to the signal of a reference solution with complete dissolution of the test compound in acetonitrile/water (1:1) with known concentration.

KRAS (WT)::SOS1 = molecular target: T3, KRAS (WT)::SOS1 (Homo sapiens, UniProt P01116, C118S); experiment: KRAS::SOS1 AlphaScreen binding assay, KRAS WT
T3 construct: KRAS (WT) 1-169, N-terminal 6His-tag for purification, cleaved off; 6His-tag (N, cleaved yes); TEV cleavage site
Procedure: as §2, §3, §4, §5, §6, §7

KRAS G12V Ba/F3 cells = KRAS G12V Ba/F3 cells (Homo sapiens, UniProt P01116, G12V, cells depend on it); experiment: Ba/F3 proliferation assay, KRAS G12V; type: cell-based; conditions: 72 h, AlamarBlue; read-out: KRAS G12V Ba/F3 IC50
Procedure: as §1

[3] = McIlvaine buffer pH 4.5, 24 h, read-out: solubility pH 4.5
[4] = McIlvaine buffer pH 6.8, 24 h, read-out: solubility pH 6.8

T2 sequence (P01116 1-169 isoform P01116-2 G12D): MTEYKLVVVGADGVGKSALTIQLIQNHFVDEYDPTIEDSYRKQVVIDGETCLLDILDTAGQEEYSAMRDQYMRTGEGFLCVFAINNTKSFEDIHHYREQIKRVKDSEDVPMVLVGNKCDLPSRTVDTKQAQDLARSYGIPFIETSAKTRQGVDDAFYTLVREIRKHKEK
Sequence of KRAS G12D Ba/F3 cells (P01116 whole entry G12D, canonical isoform): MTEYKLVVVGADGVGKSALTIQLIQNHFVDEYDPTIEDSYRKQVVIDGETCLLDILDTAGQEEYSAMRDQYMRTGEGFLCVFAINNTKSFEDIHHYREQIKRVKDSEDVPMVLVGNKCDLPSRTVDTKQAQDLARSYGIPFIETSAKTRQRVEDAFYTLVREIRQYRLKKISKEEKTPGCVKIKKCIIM
T1 sequence (P01116 1-169 isoform P01116-2 G12C/C51S/C80L/C118S): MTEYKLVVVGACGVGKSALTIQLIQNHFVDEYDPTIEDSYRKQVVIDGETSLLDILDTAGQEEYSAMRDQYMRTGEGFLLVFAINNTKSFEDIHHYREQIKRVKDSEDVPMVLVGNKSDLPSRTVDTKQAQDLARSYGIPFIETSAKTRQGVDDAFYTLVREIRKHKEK
Sequence of KRAS G12C Ba/F3 cells (P01116 whole entry G12C): as the sequence (P01116 whole entry G12D, canonical isoform) above, with D12C counted along it
T3 sequence (P01116 1-169 isoform P01116-2 C118S): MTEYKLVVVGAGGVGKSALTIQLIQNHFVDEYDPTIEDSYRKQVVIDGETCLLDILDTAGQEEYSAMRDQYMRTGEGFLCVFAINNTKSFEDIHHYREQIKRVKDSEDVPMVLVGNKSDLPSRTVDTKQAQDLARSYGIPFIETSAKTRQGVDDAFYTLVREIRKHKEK
Sequence of KRAS G12V Ba/F3 cells (P01116 whole entry G12V): as the sequence (P01116 whole entry G12D, canonical isoform) above, with D12V counted along it

C[C@H](Oc1nccc(-c2nnn3c2CCCC32CCCc3sc(N)c(C#N)c32)n1)[C@@H]1CCCN1C (stereo partly drawn) [IVa-1]
GI50 (KRAS G12D Ba/F3 cells): 381 nM | IC50 (KRAS (G12C)::SOS1): 56 nM | GI50 (KRAS G12C Ba/F3 cells): 521 nM | HLM QH [1]: 80% | IC50 (KRAS (G12D)::SOS1): 18 nM

C[C@H]1CN(CC2CC2)CCCN1c1nccc(-c2onc3c2CCC[C@@]32CCCc3sc(N)c(C#N)c32)n1 [Ig-1]
GI50 (KRAS G12D Ba/F3 cells): 48 nM | IC50 (KRAS (G12C)::SOS1): 8 nM | GI50 (KRAS G12C Ba/F3 cells): 89 nM | HLM QH [1]: >88% | solubility at 24 h [2, 3]: 23 µg/mL (≈ 43.4 µM) | solubility at 24 h [2, 4]: 10 µg/mL (≈ 18.9 µM) | IC50 (KRAS (G12D)::SOS1): 3 nM

C[C@H]1CNCCCN1c1cccc(-c2onc3c2CCC[C@@]32CCCc3sc(N)c(C#N)c32)n1 [Ib-3]
IC50 (KRAS (G12C)::SOS1): 19 nM | GI50 (KRAS G12C Ba/F3 cells): 317 nM | HLM QH [1]: <24% | IC50 (KRAS (G12D)::SOS1): 8 nM

C[C@@H](O)CN1CCCN(c2nccc(-c3onc4c3CCC[C@@]43CCCc4sc(N)c(C#N)c43)n2)[C@@H](C)C1 [Ig-4]
GI50 (KRAS G12D Ba/F3 cells): 88 nM | IC50 (KRAS (G12C)::SOS1): 6 nM | GI50 (KRAS G12C Ba/F3 cells): 108 nM | IC50 (KRAS (WT)::SOS1): 21 nM | HLM QH [1]: >88% | solubility at 24 h [2, 3]: > 153 µg/mL | solubility at 24 h [2, 4]: 76 µg/mL (≈ 142 µM) | IC50 (KRAS (G12D)::SOS1): 3 nM

C[C@H]1CN(C2CCOCC2)CCCN1c1nccc(-c2noc3c2CCC[C@@]32CCCc3sc(N)c(C#N)c32)n1 (single isomer, unassigned) [IIg-1]
GI50 (KRAS G12D Ba/F3 cells): 23 nM | IC50 (KRAS (G12C)::SOS1): 10 nM | GI50 (KRAS G12C Ba/F3 cells): 10 nM | IC50 (KRAS (WT)::SOS1): 25 nM | HLM QH [1]: >88% | solubility at 24 h [2, 3]: 107 µg/mL (≈ 191 µM) | solubility at 24 h [2, 4]: < 1 µg/mL | IC50 (KRAS (G12D)::SOS1): 4 nM

C[C@H]1CN(C2CCOC2)CCCN1c1nccc(-c2onc3c2CCC[C@@]32CCCc3sc(N)c(C#N)c32)n1 (stereo partly drawn) [Ig-2]
GI50 (KRAS G12D Ba/F3 cells): 174 nM | IC50 (KRAS (G12C)::SOS1): 12 nM | GI50 (KRAS G12C Ba/F3 cells): 123 nM | solubility at 24 h [2, 3]: > 110 µg/mL | solubility at 24 h [2, 4]: < 1 µg/mL | IC50 (KRAS (G12D)::SOS1): 4 nM

C[C@H](Oc1nccc(-c2n[nH]c3c2CCCC32CCCc3sc(N)c(C#N)c32)n1)[C@@H]1CCCN1C (stereo partly drawn) [IIIa-1]
GI50 (KRAS G12D Ba/F3 cells): 697 nM | IC50 (KRAS (G12C)::SOS1): 28 nM | GI50 (KRAS G12C Ba/F3 cells): 930 nM | IC50 (KRAS (G12D)::SOS1): 16 nM

C[C@H]1CNCCCN1c1nccc(-c2nn(C)c3c2CCC32CCCc3sc(N)c(C#N)c32)n1 (stereo partly drawn) [IIIb-1]
GI50 (KRAS G12D Ba/F3 cells): 15100 nM | IC50 (KRAS (G12C)::SOS1): 1590 nM | GI50 (KRAS G12C Ba/F3 cells): 11500 nM | GI50 (KRAS G12V Ba/F3 cells): 10400 nM | HLM QH [1]: 31% | IC50 (KRAS (G12D)::SOS1): 1770 nM
